Measured values published in US7423061B2, “Substitute thiophenes and uses thereof” (AstraZeneca AB, priority 2003, dated 2008).
Where a name gives a salt, the structure may show the parent alone.

Molecular target: T1, CHK1 kinase (Homo sapiens, UniProt O14757)
T1 construct: The kinase domain is expressed in baculovirus and purified by the GST tag; GST; made in house
T1 sequence (O14757 9-265 limits assumed): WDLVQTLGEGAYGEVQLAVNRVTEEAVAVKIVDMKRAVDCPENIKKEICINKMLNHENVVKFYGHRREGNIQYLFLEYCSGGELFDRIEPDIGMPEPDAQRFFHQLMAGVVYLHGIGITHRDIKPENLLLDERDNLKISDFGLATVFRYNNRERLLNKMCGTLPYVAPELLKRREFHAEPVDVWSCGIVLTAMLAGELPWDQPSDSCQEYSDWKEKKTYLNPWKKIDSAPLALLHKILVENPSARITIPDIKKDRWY
Test: Checkpoint Kinase 1 Assay (Scintillation Proximity Assay)
Format: biochemical
Conditions: assay not given; IC50s are determined in the Checkpoint Kinase 1 assay
Experimental: Checkpoint Kinase 1 Assay: This in vitro assay measures the inhibition of CHK1 kinase by compounds. The kinase domain is expressed in baculovirus and purified by the GST tag. Purified protein and biotinylated peptide substrate (Cdc25C) is then used in a 384 well automated Scintillation Proximity Assay (SPA). Specifically, peptide, enzyme and reaction buffer are mixed and aliquoted into a 384 well plate containing dilution series of compounds and controls. Cold and hot ATP are then added to initiate the reaction. After 2 hours, a SPA bead slurry, […] and EDTA are added to stop the reaction and capture the biotinylated peptide. Plates are then counted on a Topcount. Data is analyzed and IC50s determined for individual compounds.

With CCN(CC)CCOc1ccc(-c2cc(C(=O)NC3CCCNC3)c(NC(N)=O)s2)cc1 (stereo not shown) [Example 2, 2-[(aminocarbonyl)amino]-5-{4-[2-(diethylamino)ethoxy]phenyl}-N-piperidin-3-ylthiophene-3-carboxamide trifluoroacetate] the IC50 was 10 nM.
